Test results as given in patent US20060223792A1, “Phenyl and pyridyl LTA4H modulators” (priority 2005, published 2006).

Tests used:
[1] = molecular target: T1, recombinant human LTA4 hydrolase (rhLTA4H) (Homo sapiens, UniProt P09960); assay: Recombinant human LTA4 hydrolase assay for LTA4 hydrolase inhibitor activity; assay type: biochemical; conditions: recombinant human LTA4H, LTB4 quantified by enzyme-linked immunoassay; average of one to three determinations; read-out: IC50
T1 construct: made in house; host or cells: Spodoptera frugiperda (Sf-9) cells, baculovirus (pFastBac1)
T1 sequence (P09960 1-611): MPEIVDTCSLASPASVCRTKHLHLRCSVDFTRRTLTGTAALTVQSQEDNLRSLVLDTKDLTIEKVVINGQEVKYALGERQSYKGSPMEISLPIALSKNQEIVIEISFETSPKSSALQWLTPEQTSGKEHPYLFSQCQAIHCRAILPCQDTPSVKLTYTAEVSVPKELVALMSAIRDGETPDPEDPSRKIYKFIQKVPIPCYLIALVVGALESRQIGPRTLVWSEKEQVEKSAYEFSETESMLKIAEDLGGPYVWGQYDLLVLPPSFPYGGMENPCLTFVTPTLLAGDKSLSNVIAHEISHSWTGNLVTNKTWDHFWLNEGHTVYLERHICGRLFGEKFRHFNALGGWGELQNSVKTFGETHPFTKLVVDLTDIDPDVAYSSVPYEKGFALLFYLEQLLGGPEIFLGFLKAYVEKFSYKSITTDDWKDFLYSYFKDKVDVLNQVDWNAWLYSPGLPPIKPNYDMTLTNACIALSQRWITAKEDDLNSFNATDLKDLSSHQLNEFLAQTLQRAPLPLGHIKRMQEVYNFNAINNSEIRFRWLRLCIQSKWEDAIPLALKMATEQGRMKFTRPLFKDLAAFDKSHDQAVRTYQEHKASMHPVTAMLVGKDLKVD
How it was run: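 Sf-9-expressed rhLTA4H (36 ng) preincubated 10 min at rt with compound in 0.1 M potassium phosphate pH 7.4, 5 mg/mL fatty-acid-free BSA; 9 ng LTA4 free acid added, 10 min at rt in 225 μL. LTB4 measured by enzyme immunoassay; IC50 from 4-parameter fit, mean of one to three determinations.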

[2] = tested on: LTB4 production by calcium ionophore-stimulated murine blood; assay: LTB4 production by calcium ionophore-stimulated murine blood for LTA4H inhibitor activity; assay type: cell-based, CD-1 mice; conditions: diluted CD-1 mouse whole blood, calcium ionophore A23187, LTB4 by enzyme-linked immunoassay
Protocol: LTB4 Production by Calcium Ionophore-Stimulated Murine Blood for LTA4H Inhibitor Activity
CD-1 mice were sacrificed, and blood was collected in heparin-containing syringes by cardiac puncture. The blood was diluted 1:15 with RPMI-1640 medium, and 200-μL aliquots of the diluted blood were added to wells of a 96-well microtiter plate. LTA4H inhibitor test compounds were prepared at different concentrations in RPMI-1640 medium containing […], and 20 μL of each test solution was added to a well containing diluted whole blood (final DMSO concentration of 0.1%). After the microtiter plate contents were incubated for 15 min at 37° C. in a humidified incubator, calcium ionophore A23187 (Sigma Chemical Co., St. Louis, Mo.) was added to each sample well (final concentration=20 ng/mL). The incubation was continued under the same conditions for an additional 10 min to allow LTB4 formation. The reaction was terminated by centrifugation (833×g, 10 min at 4° C.), and supernatants were analyzed for LTB4 by a commercially available enzyme-linked immunoassay (Cayman Chemical Co.) according to the manufacturer's instructions. Positive controls, under essentially identical conditions but without addition of an inhibitor compound, and negative unstimulated controls, containing all assay components except calcium ionophore, were routinely run in each experiment. IC50 values were determined by fitting the activity data at different compound concentrations to a 4-parameter equation using the Grafit program (Erithacus software).

| SMILES | IC50 [1] [nM] | IC50 [2] [nM] |
| --- | --- | --- |
| O=C1CCCN1C1CCN(Cc2ccc(OCCc3ccccc3)cc2)CC1 [Example 99, 1-[1-(4-Phenethyloxy-benzyl)-piperidin-4-yl]-pyrrolidin-2-one] | 17 | 123 |
| O=C(O)C1CCN(Cc2ccc(OCCc3ccccc3)cc2)CC1 [Example 96, 1-(4-Phenethyloxy-benzyl)-piperidine-4-carboxylic acid] | 10 | 7 |
| O=C(O)C1CCN(CCc2ccc(OCCc3ccccc3)cc2)CC1 [Example 81, 1-[2-(4-Phenethyloxy-phenyl)-ethyl]-piperidine-4-carboxylic acid] | 19 | 181 |
| O=C(O)C1CCN(Cc2ccc(OCCCc3ccccc3)cc2)CC1 [Example 112, 1-[4-(3-Phenyl-propoxy)-benzyl]-piperidine-4-carboxylic acid] | 4 | 10 |
| O=C(O)C1CCN(CCOc2ccc(OCCCc3ccccc3)cc2)CC1 [Example 117, 1-{2-[4-(3-Phenyl-propoxy)-phenoxy]-ethyl}-piperidine-4-carboxylic acid] | 51 | 79 |
| CN(C(=O)Oc1ccc(OCCN2CCC(O)(c3ccccc3)CC2)cc1)c1ccccc1 [Example 40, Methyl-phenyl-carbamic acid 4-[2-(4-hydroxy-4-phenyl-piperidin-1-yl)-ethoxy]-phenyl ester] | 73 | 150 |
